Measurements reported in PubChem BioAssay (NCI).
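Protocol summary: plate cells (96-well), add compound at 5 concentrations, incubate 48 h, interpolate endpoints linearly. GI50: concentration for 50% inhibition of growth. TGI marks complete inhibition of growth.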

How the values were obtained:
Test in all cases: growth of human tumour cells (NCI), 48 h; in the data active = GI50 below about 0.43 µM; inactive = the rest
A498 renal = test system: A498 renal
K-562 leukemia = test system: K-562 leukemia
CAKI-1 renal = test system: CAKI-1 renal
OVCAR-8 ovarian = test system: OVCAR-8 ovarian
SK-MEL-5 melanoma = test system: SK-MEL-5 melanoma
HCC-2998 colon = test system: HCC-2998 colon
T-47D breast = test system: T-47D breast
SK-MEL-2 melanoma = test system: SK-MEL-2 melanoma
LOX IMVI melanoma = test system: LOX IMVI melanoma
NCI-H460 lung = test system: NCI-H460 lung
CCRF-CEM leukemia = test system: CCRF-CEM leukemia
HCT-116 colon = test system: HCT-116 colon
OVCAR-3 ovarian = test system: OVCAR-3 ovarian
SF-268 CNS = test system: SF-268 CNS
HS 578T breast = test system: HS 578T breast
MDA-MB-435 = test system: MDA-MB-435
SK-MEL-28 melanoma = test system: SK-MEL-28 melanoma
HT29 colon = test system: HT29 colon
SF-295 CNS = test system: SF-295 CNS
786-0 renal = test system: 786-0 renal
KM12 colon = test system: KM12 colon
ACHN renal = test system: ACHN renal
RPMI-8226 leukemia = test system: RPMI-8226 leukemia
PC-3 prostate = test system: PC-3 prostate
NCI/ADR-RES ovarian = test system: NCI/ADR-RES ovarian
HOP-92 NSCLC = test system: HOP-92 NSCLC
SK-OV-3 ovarian = test system: SK-OV-3 ovarian
SW-620 colon = test system: SW-620 colon
U251 CNS = test system: U251 CNS
RXF 393 renal = test system: RXF 393 renal
OVCAR-4 ovarian = test system: OVCAR-4 ovarian
SNB-19 CNS = test system: SNB-19 CNS
NCI-H23 lung = test system: NCI-H23 lung
NCI-H522 lung = test system: NCI-H522 lung
SN12C renal = test system: SN12C renal
COLO 205 colon = test system: COLO 205 colon
HCT-15 colon = test system: HCT-15 colon
A549 NSCLC = test system: A549 NSCLC
UACC-257 melanoma = test system: UACC-257 melanoma
EKVX NSCLC = test system: EKVX NSCLC
MOLT-4 leukemia = test system: MOLT-4 leukemia
TK-10 renal = test system: TK-10 renal
NCI-H226 lung = test system: NCI-H226 lung
HL-60(TB) leukemia = test system: HL-60(TB) leukemia
UACC-62 melanoma = test system: UACC-62 melanoma
SF-539 CNS = test system: SF-539 CNS
SR leukemia = test system: SR leukemia
HOP-62 NSCLC = test system: HOP-62 NSCLC
MCF7 breast = test system: MCF7 breast

COc1ccc(-c2oc3cc(O)c(OC)c(O)c3c(=O)c2OC)cc1O
20900 nM: TGI (KM12 colon)
715 nM: TGI (HS 578T breast)
801 nM: TGI (A498 renal)
7420 nM: TGI (786-0 renal)
7870 nM: TGI (NCI-H522 lung)
67.4 nM: TGI (MDA-MB-435)
28300 nM: TGI (CAKI-1 renal)
16400 nM: TGI (SK-OV-3 ovarian)
28800 nM: TGI (COLO 205 colon)
212 nM: TGI (HL-60(TB) leukemia)
active: GI50 (A498 renal) 210 nM | GI50 (K-562 leukemia) 43.6 nM | GI50 (OVCAR-8 ovarian) 375 nM | GI50 (SK-MEL-5 melanoma) 78.6 nM | GI50 (LOX IMVI melanoma) 76.6 nM | GI50 (NCI-H460 lung) 138 nM | GI50 (CCRF-CEM leukemia) 343 nM | GI50 (HCT-116 colon) 76.2 nM | GI50 (OVCAR-3 ovarian) 43.2 nM | GI50 (SF-268 CNS) 75.4 nM | GI50 (HS 578T breast) 37 nM | GI50 (MDA-MB-435) 25 nM | GI50 (SK-MEL-28 melanoma) 77.5 nM | GI50 (SF-295 CNS) 300 nM | GI50 (RPMI-8226 leukemia) 417 nM | GI50 (NCI/ADR-RES ovarian) 45.6 nM | GI50 (SK-OV-3 ovarian) 207 nM | GI50 (SW-620 colon) 48.5 nM | GI50 (U251 CNS) 70.8 nM | GI50 (RXF 393 renal) 171 nM | GI50 (SNB-19 CNS) 189 nM | GI50 (NCI-H522 lung) 58.9 nM | GI50 (SN12C renal) 212 nM | GI50 (HCT-15 colon) 92.8 nM | GI50 (HL-60(TB) leukemia) 27.5 nM | GI50 (UACC-62 melanoma) 311 nM | GI50 (SF-539 CNS) 44.5 nM | GI50 (SR leukemia) 39 nM | GI50 (HOP-62 NSCLC) 271 nM | GI50 (MCF7 breast) 316 nM
21900 nM: TGI (SF-539 CNS)
inactive: GI50 (CAKI-1 renal) 2380 nM | GI50 (HCC-2998 colon) 1220 nM | GI50 (T-47D breast) 819 nM | GI50 (SK-MEL-2 melanoma) 536 nM | GI50 (HT29 colon) 3500 nM | GI50 (786-0 renal) 578 nM | GI50 (KM12 colon) 437 nM | GI50 (ACHN renal) 1520 nM | GI50 (PC-3 prostate) 4440 nM | GI50 (HOP-92 NSCLC) 3460 nM | GI50 (OVCAR-4 ovarian) 1260 nM | GI50 (NCI-H23 lung) 443 nM | GI50 (COLO 205 colon) 5850 nM | GI50 (A549 NSCLC) 1070 nM | GI50 (UACC-257 melanoma) > 100000 nM | GI50 (EKVX NSCLC) 3430 nM | GI50 (MOLT-4 leukemia) 509 nM | GI50 (TK-10 renal) 21100 nM | GI50 (NCI-H226 lung) 2500 nM
194 nM: TGI (OVCAR-3 ovarian)
2040 nM: TGI (SF-295 CNS)
2670 nM: TGI (SK-MEL-5 melanoma)
4340 nM: TGI (NCI-H460 lung)
> 100000 nM: TGI (K-562 leukemia) | TGI (OVCAR-8 ovarian) | TGI (HCC-2998 colon) | TGI (T-47D breast) | TGI (SK-MEL-2 melanoma) | TGI (LOX IMVI melanoma) | TGI (CCRF-CEM leukemia) | TGI (SF-268 CNS) | TGI (SK-MEL-28 melanoma) | TGI (HT29 colon) | TGI (ACHN renal) | TGI (RPMI-8226 leukemia) | TGI (PC-3 prostate) | TGI (NCI/ADR-RES ovarian) | TGI (HOP-92 NSCLC) | TGI (SW-620 colon) | TGI (U251 CNS) | TGI (RXF 393 renal) | TGI (OVCAR-4 ovarian) | TGI (SNB-19 CNS) | TGI (NCI-H23 lung) | TGI (SN12C renal) | TGI (HCT-15 colon) | TGI (A549 NSCLC) | TGI (UACC-257 melanoma) | TGI (EKVX NSCLC) | TGI (MOLT-4 leukemia) | TGI (TK-10 renal) | TGI (NCI-H226 lung) | TGI (UACC-62 melanoma) | TGI (SR leukemia) | TGI (HOP-62 NSCLC) | TGI (MCF7 breast)
6560 nM: TGI (HCT-116 colon)
